pKi: −log10 of the molar value.
Target: T1, JNK1α1 (Homo sapiens, UniProt P45983)
T1 construct: catalytic domain containing amino acids 1-364 and N-terminal hexahistidine tag; hexahistidine (His6) (N); made in house; host or cells: E. coli BL21 (DE3)
Experiment: Coupled spectrophotometric (PK/LDH) JNK1α1 assay: % inhibition and Ki determination
Type: biochemical
Conditions: for pKi: JNK-1; for inhibition at 10 µM / inhibition at 1 µM: read-out: % Inhibition JNK-1
Method: % Inhibition and Ki Determination
A coupled spectrophotometric assay, coupling JNK1α1 activity to the oxidation of β-NADH to NAD+ through the action of pyruvate kinase (PK) and lactic dehydrogenase (LDH), was used to determine the potency (percent inhibition at 1 or 10 μM or Ki) of compounds against JNK1α1 (Genbank Accession Number: L26318). […] The reaction was monitored by following the decrease in absorbance at 340 nm. The initial reaction rate was determined by the slope of the change in absorbance. To calculate percent inhibition the rate of the reaction in the presence of 1 or 10 μM compound was compared to the rate of the reaction with only DMSO multiplied by 100 percent. Note, the background rate of the above reaction in the presence of 10 μM PHA-00738186 was subtracted from all rates. […] Y=(−X+Eo−(Ki*(1+A/Km))+((X−Eo+(Ki*(1+A/Km)))^2+4*Eo*(Ki*(1+A/Km)))^0.5)*(Vm*A/(Km+A)/(2*Eo)) Formula: • Parameters: Eo, Ki, A, Km, Vo • Y is initial reaction velocity; • X is inhibitor concentration; • A is [ATP]; • Ki is inhibition constant; • Vm is Vmax; • Eo is total (initial) enzyme concentration; • Km is ATP Km;
The compounds were prepared in 100% DMSO at a 40× concentration. For percent inhibition experiments this would be 400 or 40 μM for 10 and 1 μM final concentration, respectively. For the Ki determination 3× serial dilutions were made starting at 4 mM (100 μM at 1×) in DMSO. A total of 11 concentrations were used for the analysis. The compounds were added to the reaction plate first. Next, a solution containing the HEPES, MgCl2, DTT, peptide substrate, NADH, PEP, PK/LDH enzyme, and JNK1α1—364nHis enzyme was added to the assay plate. The plate was incubated at room temperature for 15 minutes. Then the plate was warmed to 30° C. for 5 minutes. The reaction was initiated with the addition of ATP. The reaction was run in a plate reader at 30° C. for 20 minutes with absorbance readings made about every 10 seconds.
The column with “#” heading refers to compound number as exemplified in the Examples section. The column with “Ki” heading refers to Ki (in nM). The column with “% Inhibition” heading refers to percent inhibition of JNK-1 at 1 μM or 10 μM (in %) unless otherwise stated. ND refers to no data was taken.

T1 sequence (P45983 1-364): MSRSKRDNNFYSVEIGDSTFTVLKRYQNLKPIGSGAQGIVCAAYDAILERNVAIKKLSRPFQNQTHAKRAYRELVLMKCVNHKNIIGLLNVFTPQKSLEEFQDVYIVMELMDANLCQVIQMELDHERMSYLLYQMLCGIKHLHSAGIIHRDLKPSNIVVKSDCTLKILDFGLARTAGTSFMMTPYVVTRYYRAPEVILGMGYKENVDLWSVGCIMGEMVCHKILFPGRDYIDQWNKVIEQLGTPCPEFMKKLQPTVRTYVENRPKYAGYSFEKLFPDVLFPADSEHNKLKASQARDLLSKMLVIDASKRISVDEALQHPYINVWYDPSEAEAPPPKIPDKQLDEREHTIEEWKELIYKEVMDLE

Structure (SMILES)	pKi	also measured
CC[C@H](C)[C@@H](CO)NC(=O)c1ccc2cnc(NC3CCC3)nc2c1 [Example 414, 2-(cyclobutylamino)-N-[(1S,2S)-1-(hydroxymethyl)-2-methylbutyl]quinazoline-7-carboxamide]	5.88	
c1cc(CNc2cc3cc(-c4cn[nH]c4)ccc3cn2)cc(-c2cncnc2)c1 [Example 223, 6-(1H-pyrazol-4-yl)-N-(3-pyrimidin-5-ylbenzyl)isoquinolin-3-amine]	5.48	
CC(C)c1ncc(NC(=O)c2ccc3cnc(N[C@H]4CC[C@H](O)CC4)nc3c2)cn1 [Example 359, 2-[(trans-4-hydroxycyclohexyl)amino]-N-(2-isopropylpyrimidin-5-yl)quinazoline-7-carboxamide]	5.76	
CCN(CC)CCN1CCC(Nc2cc3cc(-c4cn[nH]c4)ccc3cn2)CCC1=O (stereo not drawn) [Example 228, 1-[2-(diethylamino)ethyl]-5-{[6-(1H-pyrazol-4-yl)isoquinolin-3-yl]amino}azepan-2-one]	4.94	
CN1CCN(C)C(COc2cccc3cnc(N[C@H]4CC[C@H](O)CC4)nc23)C1 (stereo partly drawn) [Example 264, trans-4-({8-[(1,4-dimethylpiperazin-2-yl)methoxy]quinazolin-2-yl}amino)cyclohexanol]		inhibition at 10 µM: 46%
Cc1nn(C)c(C)c1NC(=O)c1cccc2cnc(N[C@H]3CC[C@H](O)CC3)nc12 [Example 318, 2-[(trans-4-hydroxycyclohexyl)amino]-N-(1,3,5-trimethyl-1H-pyrazol-4-yl)quinazoline-8-carboxamide]		inhibition at 1 µM: 37%
O=C(c1cccc2cnc(N[C@H]3CC[C@H](O)CC3)nc12)N1CCOCC1 [Example 102, trans-4-{[8-(morpholin-4-ylcarbonyl)quinazolin-2-yl]amino}cyclohexanol]	6.00	
O=C(CNC(=O)C1(c2ccccc2)CC1)Nc1cc2cc(-c3cn[nH]c3)ccc2cn1 [Example 35, N-(2-oxo-2-{[6-(1H-pyrazol-4-yl)isoquinolin-3-yl]amino)ethyl)-1-phenylcyclopropanecarboxamide]	8.10	
N#Cc1cc(CNc2cc3cc(-c4cn[nH]c4)ccc3cn2)ccc1F [Example 226, 2-fiuoro-5-({[6-(1H-pyrazol-4-yl)isoquinolin-3-yl]amino}methyl)benzonitrile]	5.28	
COc1ccc(CC(=O)Nc2cc3cc(-c4cnn(C)c4)ccc3cn2)cc1 [Example 4, 2-(4-methoxyphenyl)-N-[6-(1-methyl-1H-pyrazol-4-yl)isoquinolin-3-yl]acetamide]	9.10	
CCN1CC(CNC(=O)c2cccc3cnc(N[C@H]4CC[C@H](O)CC4)nc23)OCC1=O (stereo partly drawn) [Example 529, N-[(4-ethyl-5-oxomorpholin-2-yl)methyl]-2-[(trans-4-hydroxycyclohexyl)amino]quinazoline-8-carboxamide]		inhibition at 1 µM: 16%
O=C(Cc1ccc(C(F)(F)F)cc1)Nc1cc2cc(-c3cn[nH]c3)ccc2cn1 [Example 45, N-[6-(1H-pyrazol-4-yl)isoquinolin-3-yl]-2-[4-(trifluoromethyl)phenyl]acetamide]	7.68	
O=C(NC(CO)c1ccccc1)c1ccc2cnc(NC3CCC3)nc2c1 (stereo not drawn) [Example 383, 2-(cyclobutylamino)-N-(2-hydroxy-1-phenylethyl)quinazoline-7-carboxamide]	6.70	
NC[C@@H](NC(=O)c1ccc2cnc(N[C@H]3CC[C@H](O)CC3)nc2c1)c1ccccc1 [Example 101, N-[(1S)-2-amino-1-phenylethyl]-2-[(trans-4-hydroxycyclohexyl)amino]quinazoline-7-carboxamide]	7.03	
O=C(NCC1(O)CCCCC1)c1ccc2cnc(N[C@H]3CC[C@H](O)CC3)nc2c1 [Example 327, 2-[(trans-4-hydroxycyclohexyl)amino]-N-[(1-hydroxycyclohexyl)methyl]quinazoline-7-carboxamide]	6.60	
Cc1noc(C)c1COc1ccc2cnc(N[C@H]3CC[C@H](O)CC3)nc2c1 [Example 295, trans-4-({7-[(3,5-dimethylisoxazol-4-yl)methoxy]quinazolin-2-yl}amino)cyclohexanol]		inhibition at 1 µM: 71%
CC(C)Nc1ncc2ccc(C(=O)N[C@H](CO)Cc3ccccc3)cc2n1 [Example 415, N-((1S)-1-benzyl-2-hydroxyethyl]2-(isopropylamino)quinazoline-7-carboxamide]	5.83	

Structure (SMILES)	pKi	also measured
CN1CCC(Oc2cccc3cnc(N[C@H]4CC[C@H](O)CC4)nc23)C1 (stereo partly drawn) [Example 262, trans-4-({8-[(1-methylpyrrolidin-3-yl)oxy]quinazolin-2-yl}amino)cyclohexanol]		inhibition at 10 µM: 61%
Cc1noc(C(NC(=O)c2cccc3cnc(N[C@H]4CC[C@H](O)CC4)nc23)c2ccccc2)n1 (stereo partly drawn) [Example 527, 2-[(trans-4-hydroxycyclohexyl)amino]-N-[(3-methyl-1,2,4-oxadiazol-5-yl)(phenyl)methyl]quinazoline-8-carboxamide]		inhibition at 1 µM: 34%
c1ccc2ncc(CNc3cc4cc(-c5cn[nH]c5)ccc4cn3)cc2c1 [Example 220, 6-(1H-pyrazol-4-yl)-N-(quinolin-3-ylmethyl)isoquinolin-3-amine]	5.71	
CC(=O)N[C@H]1CC[C@H](Nc2ncc3cccc(C(=O)N[C@@H]4CCC[C@H]4O)c3n2)CC1 (relative stereo) [Example 138, 2-{[trans-4-(acetylamino)cyclohexyl]amino}-N-[(trans)-2-hydroxycyclopentyl]quinazoline-8-carboxamide]	6.02	
CC(=O)N1CCC(C(=O)Nc2cc3cc(-c4cn[nH]c4)ccc3cn2)CC1 [Example 15, 1-acetyl-N-[6-(1H-pyrazol-4-yl)isoquinolin-3-yl]piperidine-4-carboxamide]	7.62	
N#Cc1cccc(CNc2cc3cc(-c4cn[nH]c4)ccc3cn2)c1 [Example 238, 3-({[6-(1H-pyrazol-4-yl)isoquinolin-3-yl]amino}methyl)benzonitrile]		inhibition at 10 µM: 46%
CC(NC(=O)c1cccc2cnc(N[C@H]3CC[C@H](O)CC3)nc12)c1ccncn1 (stereo partly drawn) [Example 492, 2-[(trans-4-hydroxycyclohexyl)amino]-N-(1-pyrimidin-4-ylethyl)quinazoline-8-carboxamide]		inhibition at 1 µM: 12%
COc1ccccc1-c1ncc(CNc2cc3cc(-c4cn[nH]c4)ccc3cn2)cn1 [Example 232, N-{[2-(2-methoxyphenyl)pyrimidin-5-yl]methyl}-6-(1H-pyrazol-4-yl)isoquinolin-3-amine]		inhibition at 10 µM: 46%
O=C(NC1(CO)CCCC1)c1ccc2cnc(NC3CCCC3)nc2c1 [Example 421, 2-(cyclopentylamino)-N-[1-(hydroxymethyl)cyclopentyl]quinazoline-7-carboxamide]		inhibition at 1 µM: 15%
O=C(NCc1noc(-c2ccccc2)n1)c1cccc2cnc(N[C@H]3CC[C@H](O)CC3)nc12 [Example 501, 2-[(trans-4-hydroxycyclohexyl)amino]-N-[(5-phenyl-1,2,4-oxadiazol-3-yl)methyl]quinazoline-8-carboxamide]		inhibition at 10 µM: 60%
Cc1cccc(CNC(=O)c2cccc3cnc(N[C@H]4CC[C@H](O)CC4)nc23)n1 [Example 481, 2-[(trans-4-hydroxycyclohexyl)amino]-N-[(6-methylpyridin-2-yl)methyl]quinazoline-carboxamide]		inhibition at 1 µM: 14%
O=C(NC1CCS(=O)(=O)C1)c1ccc2cnc(N[C@H]3CC[C@H](O)CC3)nc2c1 (stereo partly drawn) [Example 344, N-(1,1-dioxidotetrahydro-3-thienyl)-2-[(trans-4-hydroxycyclohexyl)amino]quinazoline-7-7-carboxamide]	6.06	
CN1CCC(COc2ccc3cnc(N[C@H]4CC[C@H](O)CC4)nc3c2)CC1 [Example 156, trans-4-({7-[(1-methylpiperidin-4-yl)methoxy]quinazolin-2-yl}amino)cyclohexanol]	6.01	
CCc1ccc(C)nc1NC(=O)c1cccc2cnc(N[C@H]3CC[C@H](O)CC3)nc12 [Example 314, N-(3-ethyl-6-methylpyridin-2-yl)-2-[(trans-4-hydroxycyclohexyl)amino]quinazoline-8-carboxamide]		inhibition at 1 µM: 11%
CS(=O)(=O)N[C@H]1CC[C@H](Nc2ncc3cccc(OC4CCOC4)c3n2)CC1 (stereo partly drawn) [Example 187, N-(trans-4-{[8-(tetrahydrofuran-3-yloxy)quinazolin-2-yl]amino}cyclohexyl)methanesulfonamide]	6.38	
CC(C)c1ccc(OCC(=O)Nc2cc3cc(-c4cn[nH]c4)ccc3cn2)cc1 [Example 50, 2-(4-isopropylphenoxy)-N-[6-(1H-pyrazol-4-yl)isoquinolin-3-yl]acetamide]	8.52	

From US7998978B2 (Pfizer Inc., priority 2006, dated 2011)
